# From patent publication US20030203857A1, “Remedies” (priority 2000, published 2003)
# “And” between values parts separate entries of the source, which are not always exact repeats. Identical values can stand only once.
# Columns and labels:
# mouse = format: in vivo; settings: orally, single dose of 1 g/1 kg
# [1] = test system: HGF production in MRC-5 cells; experiment: Enhancing activity for HGF production, MRC-5 cells, HGF ELISA of medium; format: cell-based, Human; settings: 24 hours, control = 100%
# Procedure: MRC-5 cells (CCL 171: manufactured by DAINIPPON PHARMACEUTICAL CO., LTD., code. 02-021) were suspended in a DME medium containing 10% fetal bovine serum so as to have a concentration of 5×10^4 cells/cm^2. The suspension was put in a 48-well cell culture plate, and the cells were cultured at 37° C. in the presence of 5% CO2 gas for 24 hours. After culturing, the medium was exchanged. Thereafter, the sample was added, and the cells were cultured for another 24 hours. Subsequently, the medium was collected, and the amount of HGF in the medium was assayed using Quantikine Human Hepatocyte Growth Factor (HGF) ELISA Kit (manufactured by Funakoshi, code. RS-0641-00). […] Here, the addition of the sample was carried out by previously preparing aqueous solutions of the samples at various concentrations, and adding a given amount of each solution to the medium so as to have the above-mentioned final concentration. As the control, that with addition of a given amount of distilled water alone (final concentration of the sample: 0 μM) was used. The amount of HGF production was expressed as the relative value (%) when the HGF concentration in the cell culture medium of the control was defined as 100%. All experiments were carried out twice, and an average value was taken.
# [2] = test system: NGF production in L-M cells; experiment: Enhancing activity for NGF production, L-M cells, NGF enzyme immunoassay of medium; format: cell-based, murine; settings: control = 100%
# Procedure: L-M cells (ATCC CCL-1.2) from murine fibroblasts were suspended in an M199 medium (manufactured by ICN) containing 0.5% bactopeptone (manufactured by Gibco BRL) so as to have a concentration of 1.5×10^5 cells/ml. The suspension was put in a 96-well plate in an amount of 0.1 ml each well, and the cells were aseptically cultured. After culturing the cells for 3 days, the medium was removed therefrom, and exchanged with an M199 medium containing 0.5% bovine serum albumin (manufactured by Sigma). […] After the termination of the culture, the NGF concentration in the culture medium was determined by an enzyme immunoassay method (NGF Emax Immuno Assay System, manufactured by Promega). Incidentally, in the case where the final concentration of the iron-treated chlorogenic acid was 0 μM, a given amount of an aqueous solution obtained by an iron treatment in the absence of chlorogenic acid was added to the medium. In addition, for the purpose of comparison, the activity of the chlorogenic acid without the iron treatment was assayed in the same manner. As described above, that with addition of a given amount of distilled water alone (final concentration of chlorogenic acid without the iron treatment: 0 μM) was used as the control. The amount of NGF production was expressed as the relative value (%) when the NGF concentration in the cell culture medium of the control was defined as 100%. The experiment was carried out twice, and an average value was taken. The enhancing activity for NGF production of chlorogenic acid was enhanced by the iron treatment.
Compound,Death after single oral administration (mouse),Amount of HGF Production ([1]; 1 μM),Amount of HGF Production ([1]; 10 μM),Amount of HGF Production ([1]; 100 μM),also measured
O=c1c(O)c(-c2cc(O)c(O)c(O)c2)oc2cc(O)cc(O)c12 [myricetin],no cases of death,187%,543%,454%,
"CCOC(=O)/C=C/c1ccc(O)c(O)c1 [Caffeic Acid Ethyl Ester, caffeic acid ethyl ester]",,,,,Amount of NGF Production ([2]; 0.0625 mg/ml): 1279.1%
O=c1c(O)c(-c2ccc(O)c(O)c2)oc2cc(O)cc(O)c12 [quercetin],no cases of death,,139%,304%,
"3,5-dicaffeoylquinic acid",,142%,206%,290%,
O=c1cc(-c2ccc(O)c(O)c2)oc2cc(O)c([C@@H]3O[C@H](CO)[C@@H](O)[C@H](O)[C@H]3O)c(O)c12 [isoorientin],no cases of death,,,,
C=C(C)C(O)Cc1c(O)cc(OC)c(C(=O)/C=C/c2ccc(O)cc2)c1O (centres unmarked) [xanthohumol D],no cases of death,,,,
"O=C(/C=C/c1ccc(O)c(O)c1)O[C@@H]1C[C@@](O)(C(=O)O)C[C@@H](O)[C@@H]1O [neochlorogenic acid, 5-caffeoyl-quinic acid]",no cases of death,,,,
O=C(/C=C/c1ccc(O)c(O)c1)O[C@@H]1C[C@](O)(C(=O)O)C[C@@H](O)[C@H]1O [chlorogenic acid],no cases of death,105%,122%,302%,"Amount of NGF Production ([2]; 125 μM, 20 hours): 124.6%; Amount of NGF Production ([2]; 250 μM, 20 hours): 308.5% and 192.8%; Amount of NGF Production ([2]; 500 μM, 20 hours): 351.1% and 382.2% and 328.5% and 231.9%; Amount of NGF Production ([2]; 1000 μM, 20 hours): 256.2%; Amount of HGF Production ([1]; 50 μM (as chlorogenic acid)): 148%; Amount of HGF Production ([1]; 500 μM): 479%; Amount of HGF Production ([1]; 1000 μM): 624%"
O=C(O)/C=C/c1ccc(O)c(O)c1 [caffeic acid],no cases of death,85%,117%,196%,"Amount of NGF Production ([2]; 62.5 μM, 20 hours): 97.8%; Amount of NGF Production ([2]; 125 μM, 20 hours): 199.5%; Amount of NGF Production ([2]; 250 μM, 20 hours): 221.2% and 227.8%; Amount of NGF Production ([2]; 500 μM, 20 hours): 287.9%; Amount of NGF Production ([2]; 1000 μM, 20 hours): 269.3%; Amount of HGF Production ([1]; 1000 μM): 92%"
"O=C(/C=C/c1ccc(O)c(O)c1)O[C@H]1[C@H](O)C[C@](O)(C(=O)O)C[C@H]1O [cryptochlorogenic acid, 4-caffeoyl-quinic acid]",no cases of death,,,,
"COC(=O)/C=C/c1ccc(O)c(O)c1 [Caffeic Acid Methyl Ester, caffeic acid methyl ester]",,,,,Amount of NGF Production ([2]; 0.0625 mg/ml): 824.4%; Amount of NGF Production ([2]; 0.125 mg/ml): 889.6%
COc1cc2c(c(O)c1C(=O)/C=C/c1ccc(O)cc1)CC(O)C(C)(C)O2 (centres unmarked) [xanthohumol B],no cases of death,,,,
O=C(O)c1cc(O)c(O)c(O)c1 [gallic acid],no cases of death,112%,217%,576%,
COc1cc(O)c(CC=C(C)C)c2c1C(=O)CC(c1ccc(O)cc1)O2 (centres unmarked) [isoxanthohumol],,,,,"Amount of NGF Production ([2]; 50 μM, 20 hours): 110.7%; Amount of NGF Production ([2]; 100 μM, 20 hours): 121.4%; Amount of NGF Production ([2]; 200 μM, 20 hours): 198.0%"
O=C(O[C@@H]1Cc2c(O)cc(O)cc2O[C@@H]1c1cc(O)c(O)c(O)c1)c1cc(O)c(O)c(O)c1 [epigallocatechin gallate],no cases of death,175%,160%,,
O=c1c(O)c(-c2ccc(O)cc2)oc2cc(O)cc(O)c12 [kaemferol],no cases of death,,,,
